15 molecules from ChEMBL document CHEMBL5724796, “Tm Shift (DSF) assay results for EUbOPEN Chemogenomics Library” (2024) can be followed below.

Residues, ends and D or L forms follow the SMILES beside them. *: point of attachment. Cbz = O=C(OCc1ccccc1)*

In experiment [1] the target is T1, Peregrin (Homo sapiens) (UniProt P55201).
T1 sequence (whole entry): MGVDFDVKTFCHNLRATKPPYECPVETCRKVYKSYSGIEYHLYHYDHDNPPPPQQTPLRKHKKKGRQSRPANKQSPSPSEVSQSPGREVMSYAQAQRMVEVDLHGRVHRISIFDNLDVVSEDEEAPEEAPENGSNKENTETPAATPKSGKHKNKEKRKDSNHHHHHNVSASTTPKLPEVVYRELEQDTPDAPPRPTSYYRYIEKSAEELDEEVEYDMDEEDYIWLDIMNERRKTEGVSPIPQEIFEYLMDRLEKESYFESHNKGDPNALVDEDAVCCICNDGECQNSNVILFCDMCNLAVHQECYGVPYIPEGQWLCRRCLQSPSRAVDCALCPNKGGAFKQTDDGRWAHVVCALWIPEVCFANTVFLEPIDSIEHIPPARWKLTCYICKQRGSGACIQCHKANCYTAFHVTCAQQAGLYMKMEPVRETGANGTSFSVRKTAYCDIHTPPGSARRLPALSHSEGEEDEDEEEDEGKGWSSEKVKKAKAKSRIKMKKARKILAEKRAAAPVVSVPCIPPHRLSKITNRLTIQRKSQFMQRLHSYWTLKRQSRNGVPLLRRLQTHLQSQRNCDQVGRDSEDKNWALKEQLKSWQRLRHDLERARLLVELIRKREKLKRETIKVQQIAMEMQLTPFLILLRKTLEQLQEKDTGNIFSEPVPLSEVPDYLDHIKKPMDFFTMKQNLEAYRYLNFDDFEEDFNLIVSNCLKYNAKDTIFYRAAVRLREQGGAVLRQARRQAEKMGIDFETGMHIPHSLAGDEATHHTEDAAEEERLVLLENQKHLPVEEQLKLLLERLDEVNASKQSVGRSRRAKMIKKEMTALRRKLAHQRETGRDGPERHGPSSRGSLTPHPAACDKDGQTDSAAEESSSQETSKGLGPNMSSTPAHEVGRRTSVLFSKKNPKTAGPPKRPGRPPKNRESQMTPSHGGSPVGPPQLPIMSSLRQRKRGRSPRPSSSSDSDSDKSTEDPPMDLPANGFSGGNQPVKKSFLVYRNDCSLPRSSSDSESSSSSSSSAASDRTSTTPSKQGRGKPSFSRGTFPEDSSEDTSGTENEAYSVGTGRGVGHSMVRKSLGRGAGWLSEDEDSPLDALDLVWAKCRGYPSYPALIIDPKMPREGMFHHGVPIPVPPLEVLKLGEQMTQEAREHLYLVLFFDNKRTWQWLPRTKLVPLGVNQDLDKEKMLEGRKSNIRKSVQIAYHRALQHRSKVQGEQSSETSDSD
To be noted: Compound concentration 20.0 uM.

The target of experiment [2] is Fibroblast growth factor receptor 2 (Homo sapiens) (UniProt P21802). The conditions noted are these: Compound concentration 20.0 uM.
Sequence of Fibroblast growth factor receptor 2 (Homo sapiens) (P21802 22-821 limits assumed): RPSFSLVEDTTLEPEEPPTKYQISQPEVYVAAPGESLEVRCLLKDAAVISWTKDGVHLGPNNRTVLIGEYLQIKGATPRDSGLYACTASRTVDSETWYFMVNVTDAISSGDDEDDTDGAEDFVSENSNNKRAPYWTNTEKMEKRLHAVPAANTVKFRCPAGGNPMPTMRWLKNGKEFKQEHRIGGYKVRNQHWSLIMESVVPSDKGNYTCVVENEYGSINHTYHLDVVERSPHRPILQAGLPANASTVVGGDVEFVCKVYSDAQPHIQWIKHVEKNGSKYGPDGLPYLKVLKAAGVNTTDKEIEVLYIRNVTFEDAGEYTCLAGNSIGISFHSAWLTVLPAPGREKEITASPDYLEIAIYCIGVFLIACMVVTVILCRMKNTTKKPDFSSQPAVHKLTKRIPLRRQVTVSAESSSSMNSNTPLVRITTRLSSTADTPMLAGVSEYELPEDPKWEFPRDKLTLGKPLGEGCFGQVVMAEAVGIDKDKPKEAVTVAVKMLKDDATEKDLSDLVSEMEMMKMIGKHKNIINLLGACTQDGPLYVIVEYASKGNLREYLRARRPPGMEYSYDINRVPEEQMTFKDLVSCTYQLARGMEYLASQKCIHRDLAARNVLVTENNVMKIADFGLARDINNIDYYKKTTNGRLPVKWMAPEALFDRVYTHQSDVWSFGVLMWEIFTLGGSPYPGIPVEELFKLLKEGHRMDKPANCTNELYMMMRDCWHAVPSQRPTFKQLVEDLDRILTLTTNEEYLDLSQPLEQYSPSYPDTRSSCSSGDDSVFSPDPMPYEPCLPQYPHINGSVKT
Description: Thermal Shift Assay. Domain: start/stop: T457-E768

As usually defined, the ΔTm is the change in melting temperature against a reference sample. On to `O=CC1CCCN1C(=O)C1CCCN1C(=O)OCc1ccccc1` (stereo not drawn) (Cbz-Pro-Pro-aldehyde; configuration not given here), for which the ΔTm in experiment [1] was -0.94 °C; in experiment [2], 0.49 °C.
For the molecule `CCC(=O)N1CCOc2c(cc(-c3cc(OC)cc(OC)c3)cc2C(=O)N[C@H]2CCCN(C)C2)C1`, the ΔTm in experiment [1] is -0.83 °C; in experiment [2], 0.29 °C.
Turning to `Cc1cc(OCc2nnc(SC3CCCC3)n2-c2cccnc2)ccc1-c1ccc(S(C)(=O)=O)cc1`, the values for the ΔTm in experiment [1] and in experiment [2] were -5.44 °C and -3.4 °C, respectively.
The like results for `N[C@@H](CCCCNC(=O)OCc1ccc([N+](=O)[O-])cc1)C(=O)N1CCCC1` were, in that order, 0.82 °C and -0.09 °C.
As to `O=C(c1ccc2c(ccn2-c2ccc(F)cc2)c1)N1CC(N2CCN(C(=O)c3nccs3)CC2)C1`, the ΔTm in experiment [1] is -2.53 °C; in experiment [2] it was -0.43 °C.
Taken in the same sequence, the figures for `C=C(C)[C@@H](CC=C(C)C)C[C@@]12C[C@@H](CC=C(C)C)C(C)(C)[C@@](CC=C(C)C)(C(=O)C(C(=O)c3ccc(O)c(O)c3)=C1O)C2=O` were -4.72 °C and -5.95 °C.
Turning to `N[C@@H](CCCCB(O)O)C(=O)O`, the ΔTm in experiment [1] was found to be 0.2 °C; in experiment [2] it was 0.29 °C.
Consider `Cc1ncsc1-c1ccc([C@H](C)NC(=O)[C@@H]2C[C@@H](O)CN2C(=O)[C@@H](NC(=O)CNC(=O)c2ccc(F)c(-c3ccc(N4C[C@@H](C)N(C)[C@@H](C)C4)c(NC(=O)c4c[nH]c(=O)cc4C(F)(F)F)c3)c2)C(C)(C)C)cc1`, for which the ΔTm in experiment [1] is -0.15 °C; in experiment [2] it was -4.38 °C.
The like results for `CN(Cc1ccccc1)c1ccc2cc(C(=O)O)c(=O)oc2c1` were, in that order, 0.71 °C and 0.34 °C.
On to `CNC(=O)c1cnc(N2CCC[C@H](N)C2)nc1Nc1cc(C(C)C)nc(C(C)C)c1`, for which the ΔTm is -0.82 °C in experiment [1] and -3.52 °C in experiment [2].
As to `CC(C)=C[C@H]1C[C@H](C)[C@]2(CC[C@]3(C)C[C@H]4[C@H](C(=O)C[C@@]4(C)O)/C(C=O)=C\C[C@H]32)O1`, the ΔTm in experiment [1] is -0.47 °C; in experiment [2] it was 0.16 °C.
Regarding `COc1ccccc1[C@H]1[C@H](C(=O)O)[C@H](c2ccccc2OC)[C@H]1C(=O)Oc1cccc2ccccc12`, the ΔTm in experiment [1] is 0.27 °C; in experiment [2], -0.72 °C.
In the case of `N#Cc1cccnc1N1CCN(C(=O)c2cccc(Cc3n[nH]c(=O)c4ccccc34)c2)CC1`, the ΔTm was 1.88 °C in experiment [1] and -0.1 °C in experiment [2].
The like results for `CCN(CC)C(=O)/C(C#N)=C/c1cc(O)c(O)c([N+](=O)[O-])c1` were, in that order, 1.31 °C and 0.06 °C.
The like results for `Cc1nc(F)ccc1-c1cc(Cn2ccn(C)c2=N)cc(C(=O)NCc2ccc(Cl)c(Cl)c2)c1` were, in that order, -1.3 °C and 0.16 °C.
